Experimental data reported in publication PMC9966845, “Targeting Siderophore-Mediated Iron Uptake in M. abscessus: A New Strategy to Limit the Virulence of Non-Tuberculous Mycobacteria” (Pharmaceutics, 2023).
Like-named read-outs stand apart in the source and are kept apart here.

Assays:
Mab = experiment: MIC evaluation by resazurin assay in iron-limiting conditions; format: cell-based, M. abscessus; details: Mycobacteroides abscessus, chelated Sauton's medium, highest concentration tested 500 μM, read-out: antimycobacterial activity (MIC)
Experimental: Exponentially growing primary cultures were diluted 1:10 in iron-depleted Sauton’s medium enriched with 10% OACD. The secondary Mab culture growing in iron-limiting conditions was then diluted to OD600 0.005 using iron-depleted Sauton’s medium. Each well of the 96-well plate was filled with 100 μL of the diluted cell suspension. For each plate, the first four wells of the first row were filled with the cellular suspension and no drug was added (negative control). The following four wells were filled with the cellular suspension and treated with the vehicle volume. The last four wells of the first row were filled with the cellular suspension and treated with 1 mg/mL Streptomycin (positive control). Only the first well of the other rows was filled with 200 μL of cell suspension. In this well, the highest concentration of compound 1 (500 µM) was added and then two-fold serially diluted. After 24 h of incubation at 37 °C, 10 μL/well of 0.01% resazurin was added. The plate was re-incubated at 37 °C for 24 h and then read out. Pink wells indicated bacterial viability, whereas wells with an unchanged blue color indicated cidality. The MIC was counted as the lowest compound concentration causing cidality.

Mab-SaS [1] = target: T1, Mab-SaS (Mycobacteroides abscessus, UniProt B1MAQ5); experiment: Mab-SaS inhibition, fluorimetric enzymatic assay; format: biochemical, M. abscessus; details: for remaining activity at 100 µM: 100 μM ligand concentration, read-out: %RA (residual enzymatic activity)
Experimental: The selected furan-based compounds were screened against Mab-SaS enzymatic activity at 100 µM (dissolved in a solution containing 10% DMSO). Assays were performed at subsaturating concentrations of chorismic acid (50 μM), as above. For the most promising compounds, the IC50 value was also determined.
To further verify the reliability of the inhibition results against Mab-SaS, we determined the IC50 of compound 1 in the presence of 0.1 mg/mL bovine serum albumin (BSA) or in the presence of 0.01% (v/v) Triton X-100 as a detergent. Moreover, to exclude an unspecific binding to cysteine residues, we also tested the IC50 with 100 μM of 1,4-dithio-DL-threitol (DTT).

M. bovis BCG = details: cited from earlier work
Mab-SaS [2] = target: T1, Mab-SaS; experiment: Grating-Coupled Interferometry (GCI) binding analysis; design: species or system M. abscessus; details: 25 °C, 1:1 kinetic model
Experimental: The binding affinity and ligand efficiency of the furan-based library was evaluated by Grating-Coupled Interferometry (GCI). The analyses were performed by the Creoptix WAVE system (Malvern Panalytical, Malvern, UK). Borate buffer (100 mM sodium borate pH 9.0, 1 M NaCl) was used for chip conditioning. Experiments were carried out by reversibly capturing His-tagged Mab-SaS (50 μg/mL in running buffer, i.e., PBS, 0.05% Tween 20, 0.5% DMSO) on 4PCP-NTA WAVE chips, according to the manufacturer’s instructions, at a density of 3000 pg/mm^2.
Regeneration-free injections of a 1:2 dilution series in the 500–3 μM range for each compound of the furan-based library in running buffer were performed at 25 °C, using a flow rate of 100 μL/min.
A dimethyl sulfoxide (DMSO) calibration curve was used for bulk correction, and blank injections for double referencing. Data were analyzed and corrected using the Creoptix WAVE control software (correction applied: X and Y offset; DMSO calibration; double referencing). The processed data were fitted using the “1:1” kinetic model of the WAVE control software. All the experiments were performed in triplicate. Descriptive Statistical Analysis, as implemented in Microsoft Office Excel 10 (Microsoft Corporation, Redmond, WA, USA), was employed to calculate the mean of the obtained values of kon, koff, and KD as a measure of central tendency; standard deviations of the former values were computed as a measure of dispersion.

[3] = tested on: C=C(O[C@@H]1C=C(C(=O)O)C=C[C@H]1O)C(=O)O; experiment: purified protein, by the assay type; details: other: substrate of Mab-SaS, 37 °C, pH 7.5
[4] = no additive, 50 μM chorismic acid, read-out: IC50

T1 sequence (B1MAQ5 entry or part of it): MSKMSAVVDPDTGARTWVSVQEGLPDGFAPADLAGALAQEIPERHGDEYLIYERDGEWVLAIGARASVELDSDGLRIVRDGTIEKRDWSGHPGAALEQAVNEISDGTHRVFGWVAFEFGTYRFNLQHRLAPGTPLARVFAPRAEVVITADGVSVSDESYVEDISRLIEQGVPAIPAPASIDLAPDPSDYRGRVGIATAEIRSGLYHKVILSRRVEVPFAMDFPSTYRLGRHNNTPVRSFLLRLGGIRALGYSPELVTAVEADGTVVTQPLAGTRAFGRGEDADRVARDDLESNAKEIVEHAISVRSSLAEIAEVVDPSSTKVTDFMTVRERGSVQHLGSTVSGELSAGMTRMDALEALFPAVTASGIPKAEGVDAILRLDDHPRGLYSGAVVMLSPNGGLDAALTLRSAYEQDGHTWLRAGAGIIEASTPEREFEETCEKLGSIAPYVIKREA

O=C(O)c1ccc(-c2ccc(C(F)(F)F)cc2C(F)(F)F)o1 [Compound 1, 5-(2,4-bis(trifluoromethyl)phenyl)furan-2-carboxylic acid]
MIC (Mab): > 500 µM | IC50 (Mab-SaS [1]; 100 μM DTT in the reaction mixture, read-out: IC50 in the presence of DTT): 6.1 ± 1.42 µM | inhibition at 100 µM (Mab-SaS [1]; 100 μM compound): 98.8% | remaining activity at 100 µM (Mab-SaS [1]; 50 μM chorismic acid): 1.2 ± 2.8% | IC50 (Mab-SaS [1]; 0.1 mg/mL bovine serum albumin (PAIN analysis), read-out: IC50 in the presence of BSA): 5.2 ± 0.68 µM | IC50 (Mab-SaS [1]; 0.01% (v/v) Triton X-100 (PAIN analysis), read-out: IC50 in the presence of Triton X-100): 6.5 ± 0.56 µM | IC50 (Mab-SaS [1]; [4]): 5.3 ± 1.5 µM | antimycobacterial activity on M. bovis BCG (M. bovis BCG): 500 µM | Kd (Mab-SaS [2]): 6.11 ± 0.16 µM | koff (Mab-SaS [2]): 9.77e-05 s⁻¹ | kon (Mab-SaS [2]): 15.4 ± 5 M⁻¹ s⁻¹

Nc1cc([N+](=O)[O-])ccc1-c1ccc(C(=O)O)o1 [Compound 2, 5-(2-amino-4-nitrophenyl)furan-2-carboxylic acid]
remaining activity at 100 µM (Mab-SaS [1]; 50 μM chorismic acid): 2.3 ± 0.7% | IC50 (Mab-SaS [1]; [4]): 23.6 ± 1.8 µM | Kd (Mab-SaS [2]): 12.7 ± 3.32 µM | koff (Mab-SaS [2]): 0.00303 s⁻¹ | kon (Mab-SaS [2]): 244 ± 6200 M⁻¹ s⁻¹

O=C(O)c1ccc(-c2cc(C(F)(F)F)cc(C(F)(F)F)c2)o1 [Compound 3, 5-(3,5-bis(trifluoromethyl)phenyl)furan-2-carboxylic acid]
remaining activity at 100 µM (Mab-SaS [1]; 50 μM chorismic acid): 15.6 ± 2.5% | IC50 (Mab-SaS [1]; [4]): 29.5 ± 1.6 µM | Kd (Mab-SaS [2]): 67.5 ± 9.51 µM | koff (Mab-SaS [2]): 0.00675 ± 6.1e-07 s⁻¹ | kon (Mab-SaS [2]): 100 ± 500 M⁻¹ s⁻¹

Mab-SaS (Mycobacteroides abscessus ATCC 19977)
Km [3]: 58 µM
